# Source: PubChem BioAssay AID488998 (The Scripps Research Institute Molecular Screening Center, 2010)
# The source made the active and inactive calls.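 The calls were made as follows: active = IC50 at or below 10 µM; inactive = IC50 above 10 µM.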
# Molecular target: Lytic switch protein BZLF1 (Epstein-Barr virus (strain B95-8)) (UniProt P03206)
# Assay: Zta-DNA binding inhibition potency, late-stage follow-up, counter-screen for EBNA-1 inhibitor project, biochemical, fluorescence polarization, dose response, round 0 (AID 488998)
# Conditions: purified Zta–Cy5 ZRE DNA binding
# Sequence of Lytic switch protein BZLF1 (Epstein-Barr virus (strain B95-8)) (P03206 whole entry, looked up): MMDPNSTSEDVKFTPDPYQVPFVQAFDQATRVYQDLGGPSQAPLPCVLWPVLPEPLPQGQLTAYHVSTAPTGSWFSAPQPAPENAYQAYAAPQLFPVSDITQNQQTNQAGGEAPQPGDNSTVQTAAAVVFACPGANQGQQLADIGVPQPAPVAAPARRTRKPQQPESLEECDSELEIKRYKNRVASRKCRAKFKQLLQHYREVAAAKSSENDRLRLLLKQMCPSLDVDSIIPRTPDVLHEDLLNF
row,SMILES,IC50
1,CS(=O)(=O)c1ccc2nc(NC(=O)c3ccccc3Cl)sc2c1,> 111 µM (inactive)
2,Cc1ccc(-n2nnnc2SCC(=O)c2cc(C)n(CC3CCCO3)c2C)cc1 (stereo not given),> 111 µM (inactive)
3,Cc1cc(C(=O)CSc2nnnn2-c2ccccc2)c(C)n1Cc1cccs1,> 111 µM (inactive)
4,COc1ccc(-n2nnnc2SCC(=O)c2cc(C)n(CC3CCCO3)c2C)cc1 (stereo not given),> 111 µM (inactive)
5,Cc1cccc(-n2nnnc2SCC(=O)c2cc(C)n(CC3CCCO3)c2C)c1 (stereo not given),> 111 µM (inactive)
6,Cc1cc(C(=O)CSc2nnnn2-c2ccc(Cl)cc2)c(C)n1CC1CCCO1 (stereo not given),> 111 µM (inactive)
7,Cc1cc(C(=O)CSc2nnnn2-c2ccccc2)c(C)n1C,> 111 µM (inactive)
8,CCn1c(C)cc(C(=O)CSc2nnnn2-c2ccccc2)c1C,> 111 µM (inactive)
9,Cc1cc(C(=O)CSc2nnnn2-c2cccc(F)c2)c(C)n1CC1CCCO1 (stereo not given),> 111 µM (inactive)
10,O=C(CSc1nnnn1-c1ccccc1)c1ccn(CC2CCCO2)c1 (stereo not given),> 111 µM (inactive)
11,Cc1ccccc1-n1nnnc1SCC(=O)c1cc(C)n(CC2CCCO2)c1C (stereo not given),> 111 µM (inactive)
12,Cc1cc(C(=O)CSc2nnnn2C2CC2)c(C)n1CC1CCCO1 (stereo not given),> 111 µM (inactive)
13,COCCn1c(C)cc(C(=O)CSc2nnnn2-c2ccccc2)c1C,> 111 µM (inactive)
14,Cc1cc(C(=O)CSc2nnnn2C)c(C)n1CC1CCCO1 (stereo not given),> 111 µM (inactive)

# The next lines start with the values.
row,IC50,SMILES
1,> 111 µM (inactive),Cc1ccccc1C(=O)Nc1nc2ccc(S(C)(=O)=O)cc2s1
2,> 111 µM (inactive),COc1ccc2sc(NC(=O)c3ccc(C)c(C)c3)nc2c1
3,> 111 µM (inactive),COc1ccc(C(=O)Nc2nc3ccc(S(C)(=O)=O)cc3s2)cc1
4,> 111 µM (inactive),COc1cccc(C(=O)Nc2nc3ccc(S(C)(=O)=O)cc3s2)c1
5,> 111 µM (inactive),Cc1ccc(C(=O)Nc2nc3cc(Br)ccc3s2)cc1C
6,> 111 µM (inactive),COc1cccc2sc(NC(=O)c3ccc(C)c(C)c3)nc12
7,> 111 µM (inactive),Cc1cccc(C(=O)Nc2nc3ccc(S(C)(=O)=O)cc3s2)c1
8,> 111 µM (inactive),COc1ccccc1C(=O)Nc1nc2ccc(S(C)(=O)=O)cc2s1
9,> 111 µM (inactive),CS(=O)(=O)c1ccc2nc(NC(=O)c3ccccc3F)sc2c1
10,> 111 µM (inactive),CS(=O)(=O)c1ccc2nc(NC(=O)c3cccc(Cl)c3)sc2c1
11,> 111 µM (inactive),COc1ccc2nc(NC(=O)c3ccc(C)c(C)c3)sc2c1
12,> 111 µM (inactive),Cc1ccc(C(=O)Nc2nc3cc(F)ccc3s2)cc1C
13,> 111 µM (inactive),Cc1ccc(C(=O)Nc2nc3ccc(S(C)(=O)=O)cc3s2)cc1
14,> 111 µM (inactive),CS(=O)(=O)c1ccc2nc(NC(=O)c3cccc(F)c3)sc2c1
15,> 111 µM (inactive),CS(=O)(=O)c1ccc2nc(NC(=O)c3ccc(Cl)cc3)sc2c1
16,> 111 µM (inactive),Cc1ccc(C(=O)Nc2nc3ccc(Br)cc3s2)cc1C
